Earlier results on one molecule are cited in US7041634B2, “Method of inhibiting immune system destruction of transplanted viable cells” (Emory University, priority 1995, dated 2006).

For this data set, the system named is encapsulated hamster islet xenografts in NOD mice. Particulars: NOD recipients.

As to `N=C(N)NCCCCCCC(=O)NC(O)C(=O)NCCCCNCCCN` (stereo not shown) [deoxyspergualin], the “prolongation of encapsulated islet xenografts” value is “significant prolongation”.
